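Cultured in 96-well plates, cells were exposed to test compound for 48 hours across five concentrations. GI50: concentration for 50% inhibition of growth. The concentration for full growth arrest is given as TGI.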
Key:
Experiment in all cases: inhibition of tumour cell growth, NCI panel, 48 h
BT-549 breast = system: BT-549 breast
TK-10 renal = system: TK-10 renal
ACHN renal = system: ACHN renal
PC-3 prostate = system: PC-3 prostate
OVCAR-5 ovarian = system: OVCAR-5 ovarian
SF-268 CNS = system: SF-268 CNS
HL-60(TB) leukemia = system: HL-60(TB) leukemia
UACC-257 melanoma = system: UACC-257 melanoma
OVCAR-3 ovarian = system: OVCAR-3 ovarian
U251 CNS = system: U251 CNS
RXF 393 renal = system: RXF 393 renal
HS 578T breast = system: HS 578T breast
SF-539 CNS = system: SF-539 CNS
SNB-19 CNS = system: SNB-19 CNS
MOLT-4 leukemia = system: MOLT-4 leukemia
SF-295 CNS = system: SF-295 CNS
NCI/ADR-RES ovarian = system: NCI/ADR-RES ovarian
SN12C renal = system: SN12C renal
MDA-MB-231 breast = system: MDA-MB-231 breast
OVCAR-8 ovarian = system: OVCAR-8 ovarian
NCI-H23 lung = system: NCI-H23 lung
RPMI-8226 leukemia = system: RPMI-8226 leukemia
SW-620 colon = system: SW-620 colon
HCT-15 colon = system: HCT-15 colon
KM12 colon = system: KM12 colon
EKVX NSCLC = system: EKVX NSCLC
UO-31 renal = system: UO-31 renal
CCRF-CEM leukemia = system: CCRF-CEM leukemia
SK-MEL-2 melanoma = system: SK-MEL-2 melanoma
MALME-3M melanoma = system: MALME-3M melanoma
SK-OV-3 ovarian = system: SK-OV-3 ovarian
MDA-MB-435 = system: MDA-MB-435
LOX IMVI melanoma = system: LOX IMVI melanoma
786-0 renal = system: 786-0 renal
HT29 colon = system: HT29 colon
SK-MEL-5 melanoma = system: SK-MEL-5 melanoma
SK-MEL-28 melanoma = system: SK-MEL-28 melanoma
HOP-92 NSCLC = system: HOP-92 NSCLC
K-562 leukemia = system: K-562 leukemia
SNB-75 CNS = system: SNB-75 CNS
NCI-H460 lung = system: NCI-H460 lung
M14 melanoma = system: M14 melanoma
A549 NSCLC = system: A549 NSCLC
MCF7 breast = system: MCF7 breast
HOP-62 NSCLC = system: HOP-62 NSCLC
DU-145 prostate = system: DU-145 prostate
COLO 205 colon = system: COLO 205 colon
NCI-H522 lung = system: NCI-H522 lung
OVCAR-4 ovarian = system: OVCAR-4 ovarian
CAKI-1 renal = system: CAKI-1 renal
NCI-H226 lung = system: NCI-H226 lung
HCT-116 colon = system: HCT-116 colon
A498 renal = system: A498 renal
SR leukemia = system: SR leukemia
T-47D breast = system: T-47D breast
UACC-62 melanoma = system: UACC-62 melanoma
HCC-2998 colon = system: HCC-2998 colon
IGROV1 ovarian = system: IGROV1 ovarian

In the case of `CN(c1ccc(NC(=O)NCCN2CCOCC2)cc1)c1ccnc(Nc2ccc(CS(C)(=O)=O)cc2)n1`, the GI50 (BT-549 breast) is reported as greater than 25 µM, the TGI (BT-549 breast) is reported as greater than 25 µM and the GI50 (TK-10 renal) is reported as greater than 25 µM. For the same compound, the TGI (TK-10 renal) was greater than 25 µM, the GI50 (ACHN renal) was greater than 25 µM and the TGI (ACHN renal) was greater than 25 µM. The GI50 (PC-3 prostate) was greater than 25 µM, the TGI (PC-3 prostate) was greater than 25 µM and the GI50 (OVCAR-5 ovarian) was greater than 25 µM. It also gave a TGI (OVCAR-5 ovarian) greater than 25 µM, a GI50 (SF-268 CNS) greater than 25 µM and a TGI (SF-268 CNS) greater than 25 µM. It also gave a GI50 (HL-60(TB) leukemia) greater than 25 µM, a TGI (HL-60(TB) leukemia) greater than 25 µM and a GI50 (UACC-257 melanoma) greater than 25 µM. It also gave a TGI (UACC-257 melanoma) greater than 25 µM, a GI50 (OVCAR-3 ovarian) greater than 25 µM and a TGI (OVCAR-3 ovarian) greater than 25 µM. For the same compound, the GI50 (U251 CNS) was greater than 25 µM, the TGI (U251 CNS) was greater than 25 µM and the GI50 (RXF 393 renal) was greater than 25 µM. It also gave a TGI (RXF 393 renal) greater than 25 µM, a GI50 (HS 578T breast) greater than 25 µM and a TGI (HS 578T breast) greater than 25 µM. For the same compound, the GI50 (SF-539 CNS) was greater than 21.4 µM, the TGI (SF-539 CNS) was greater than 25 µM and the GI50 (SNB-19 CNS) was greater than 25 µM. The TGI (SNB-19 CNS) was greater than 25 µM, the GI50 (MOLT-4 leukemia) was greater than 25 µM and the TGI (MOLT-4 leukemia) was greater than 25 µM. For the same compound, the GI50 (SF-295 CNS) was greater than 25 µM, the TGI (SF-295 CNS) was greater than 25 µM and the GI50 (NCI/ADR-RES ovarian) was greater than 25 µM. For the same compound, the TGI (NCI/ADR-RES ovarian) was greater than 25 µM, the GI50 (SN12C renal) was greater than 25 µM and the TGI (SN12C renal) was greater than 25 µM. The GI50 (MDA-MB-231 breast) was greater than 25 µM, the TGI (MDA-MB-231 breast) was greater than 25 µM and the GI50 (OVCAR-8 ovarian) was greater than 25 µM. It also gave a TGI (OVCAR-8 ovarian) greater than 25 µM, a GI50 (NCI-H23 lung) greater than 25 µM and a TGI (NCI-H23 lung) greater than 25 µM. It also gave a GI50 (RPMI-8226 leukemia) greater than 25 µM, a TGI (RPMI-8226 leukemia) greater than 25 µM and a GI50 (SW-620 colon) greater than 25 µM. For the same compound, the TGI (SW-620 colon) was greater than 25 µM, the GI50 (HCT-15 colon) was greater than 25 µM and the TGI (HCT-15 colon) was greater than 25 µM. The GI50 (KM12 colon) was 12.2 µM, the TGI (KM12 colon) was greater than 25 µM and the GI50 (EKVX NSCLC) was greater than 25 µM. It also gave a TGI (EKVX NSCLC) greater than 25 µM, a GI50 (UO-31 renal) greater than 25 µM and a TGI (UO-31 renal) greater than 25 µM. For the same compound, the GI50 (CCRF-CEM leukemia) was greater than 25 µM, the TGI (CCRF-CEM leukemia) was greater than 25 µM and the GI50 (SK-MEL-2 melanoma) was greater than 25 µM. For the same compound, the TGI (SK-MEL-2 melanoma) was greater than 25 µM, the GI50 (MALME-3M melanoma) was greater than 25 µM and the TGI (MALME-3M melanoma) was greater than 25 µM. The GI50 (SK-OV-3 ovarian) was greater than 25 µM, the TGI (SK-OV-3 ovarian) was greater than 25 µM and the GI50 (MDA-MB-435) was greater than 25 µM. For the same compound, the TGI (MDA-MB-435) was greater than 25 µM, the GI50 (LOX IMVI melanoma) was greater than 25 µM and the TGI (LOX IMVI melanoma) was greater than 25 µM. It also gave a GI50 (786-0 renal) greater than 25 µM, a TGI (786-0 renal) greater than 25 µM and a GI50 (HT29 colon) greater than 25 µM. For the same compound, the TGI (HT29 colon) was greater than 25 µM, the GI50 (SK-MEL-5 melanoma) was greater than 25 µM and the TGI (SK-MEL-5 melanoma) was greater than 25 µM. It also gave a GI50 (SK-MEL-28 melanoma) greater than 25 µM, a TGI (SK-MEL-28 melanoma) greater than 25 µM and a GI50 (HOP-92 NSCLC) of 19.2 µM. The TGI (HOP-92 NSCLC) was greater than 25 µM, the GI50 (K-562 leukemia) was greater than 25 µM and the TGI (K-562 leukemia) was greater than 25 µM. It also gave a GI50 (SNB-75 CNS) greater than 25 µM, a TGI (SNB-75 CNS) greater than 25 µM and a GI50 (NCI-H460 lung) greater than 25 µM. The TGI (NCI-H460 lung) was greater than 25 µM, the GI50 (M14 melanoma) was greater than 25 µM and the TGI (M14 melanoma) was greater than 25 µM. The GI50 (A549 NSCLC) was greater than 25 µM, the TGI (A549 NSCLC) was greater than 25 µM and the GI50 (MCF7 breast) was greater than 21.7 µM. The TGI (MCF7 breast) was greater than 25 µM, the GI50 (HOP-62 NSCLC) was greater than 25 µM and the TGI (HOP-62 NSCLC) was greater than 25 µM. The GI50 (DU-145 prostate) was greater than 25 µM, the TGI (DU-145 prostate) was greater than 25 µM and the GI50 (COLO 205 colon) was greater than 16.8 µM. For the same compound, the TGI (COLO 205 colon) was greater than 25 µM, the GI50 (NCI-H522 lung) was greater than 25 µM and the TGI (NCI-H522 lung) was greater than 25 µM. For the same compound, the GI50 (OVCAR-4 ovarian) was 19.8 µM, the TGI (OVCAR-4 ovarian) was greater than 25 µM and the GI50 (CAKI-1 renal) was greater than 25 µM. The TGI (CAKI-1 renal) was greater than 25 µM, the GI50 (NCI-H226 lung) was 9.18 µM and the TGI (NCI-H226 lung) was greater than 25 µM. It also gave a GI50 (HCT-116 colon) greater than 25 µM, a TGI (HCT-116 colon) greater than 25 µM and a GI50 (A498 renal) greater than 25 µM. For the same compound, the TGI (A498 renal) was greater than 25 µM, the GI50 (SR leukemia) was greater than 25 µM and the TGI (SR leukemia) was greater than 25 µM. It also gave a GI50 (T-47D breast) greater than 23.6 µM, a TGI (T-47D breast) greater than 25 µM and a GI50 (UACC-62 melanoma) greater than 25 µM. It also gave a TGI (UACC-62 melanoma) greater than 25 µM, a GI50 (HCC-2998 colon) greater than 25 µM and a TGI (HCC-2998 colon) greater than 25 µM. For the same compound, the GI50 (IGROV1 ovarian) was greater than 25 µM and the TGI (IGROV1 ovarian) was greater than 25 µM.

Reference: PubChem BioAssay (NCI)
